How the values were obtained:
HSV-1 protease = target: T1, HSV-1 protease (Human herpesvirus 1, UniProt P10210); experiment: Enzymatic assay for HSV-1 protease (assembly) inhibitor, fluorescence polarization; type: biochemical; conditions: read-out: HSV-1 Enzyme inhibition IC50
T1 construct: 6xHis (N); made in house; host or cells: baculovirus expression system
Experimental: An enzymatic assay method for an HSV-1 protease (assembly) inhibitor
The activity of an assembly protease was determined by fluorescence polarization. Biotin-gamma-amino butyrate-[…]-DTAF was used as a fluorescent substrate in accordance with an HSV-1 release and cleavage site. […] Changes in the sizes of fluorescent substrate molecules that increased with the use of avidin as a reaction terminator were assayed by fluorescence polarization.
The test compound was dissolved in DMF, and the resultant was diluted 5-fold with an assay buffer. 6.5 μl thereof was added to wells of a 96-well plate (a U-bottomed 96-well plate, Coster) that had previously been blocked with a blocking solution (10 mM Tris-HCl (pH 8.0), 150 mM sodium chloride, 0.05% Tween 20, 1 mg/ml of BSA). The enzyme was diluted to 21.3 μg/ml with an assay buffer (1M sodium citrate, 50 mM sodium phosphate (pH 7.4), 100 mM sodium chloride, 20% glycerol, 2 mM TCEP), and 48.5 μl of the resultant was added to each well. The plate was incubated at room temperature for 30 minutes, and 10 μl of 62.5 μg/ml substrate solution was then added to each well. The plate was incubated at room temperature for 60 minutes, and 50 μl of 2 mg/ml avidin phosphate buffer solution (50 mM sodium phosphate, 100 mM sodium chloride (pH 7.4)) was added to each well. The activity was determined in comparison with a compound without protease inhibitor using a microplate reader for fluorescence polarization.
HSV-1 protease was purified from a vaculovirus that had expressed a DNA construct encoding the reading frame for HSV-1UL26. This construct had further encoded 6 histidine residues at the amino terminus of the protease. These additional histidine residues impart affinity ligands purified by nickel-nitriloacetic acid-agarose (Qiagen). The purified protease was stored as a stock solution for a 20 mM HEPES buffer (pH 8.5, containing 20% v/v glycerin). This stock solution was diluted with an assay buffer and then used in the enzyme reaction.
In accordance with the cleavage specificity of the HSV-1 protease at the “release site” of the assembled protein, a specific substrate was synthesized (Diianni et al., J. Biol. Chem. 268, 2048 (1993)). This assembly protein-release site had the sequence • HTYLQA*SEKFKMW • , and the substrate used was biotin-gamma-amino butyrate-HTYLQA*SERFRIK-DTAF. This is a standard method for peptide synthesis, for example, as in the a method described in “The Practice of Peptide Synthesis” (Bodansky and Bodansky (1984)). The product was stored as a 2.5 mg/ml stock solution in DMF. The resultant was diluted to 62.5 μg/ml with a phosphate buffer (50 mM sodium phosphate, 100 mM sodium chloride, (pH 7.4)) immediately before its use.
An assay buffer (1M sodium citrate, 50 mM sodium phosphate (pH 7.4), 100 mM sodium chloride, 20% glycerol, 2 mM TCEP) was used to dilute a stock solution for the enzyme and that for the inhibitor.

HSV-1 = experiment: Antiviral activity, HSV-1 in Vero cells, plaque method; type: cell-based; conditions: Human alphaherpesvirus 1, 20 hours, 90% inhibition of plaque formation
Experimental: An Assay Method for Antiviral Activity These complementary assay methods examine the capacity of a compound to inhibit the generation of new viruses and to inhibit the toxicity of the compound against the host cell. Toxicity indirectly decreases the generation of viruses. Thus, it is important to simultaneously conduct both assays in order to directly compare the results. The Vero cells were sown on a 96-well plate and then cultured overnight. The culture supernatant was removed, and 100 μl of 2% FBS-DMEM containing 50,000 plaque-forming units (hereinafter abbreviated as “pfu”) of HSV-1 was added. A viral solution was removed and 200 μl of 2% FBS-DMEM comprising a test compound was added. In this case, a substance to which 2% FBS-DMEM not comprising any test compound had been added was determined as a control. These infected cells were incubated in the presence of 5% CO2 at 37° C. for 20 hours, and the medium was once allowed to freeze at −80° C. The culture solution was dissolved, and the amount of viruses in the culture solution was assayed by the plaque method. The concentration of the test compound when it inhibited 90% of plaque formation relative to the control was determined to be EC 90.

Vero cells = experiment: Cytotoxicity, Vero cells, Alamar Blue; type: cell-based; conditions: 25 μM, 20 hours
Experimental: An Assay Method for Cytotoxicity
The Vero cells were sown on a 96-well plate and then cultured overnight. The culture supernatant was removed, and 200 μl of 2% FBS-DMEM comprising 25 μM of the test compound was added. In this case, a substance to which 2% FBS-DMEM not comprising any test compound had been added was determined as a control. These cells were incubated in the presence of 5% CO2 at 37° C. for 20 hours. Alamar Blue (20 μl) was added to the cells, and cells were incubated for about 6 hours until the color of the control changed. The ratio of the absorbance was assayed using a microplate reader for absorption, and the value relative to the control was determined to be the ratio of living cells.

T1 sequence (P10210 1-247): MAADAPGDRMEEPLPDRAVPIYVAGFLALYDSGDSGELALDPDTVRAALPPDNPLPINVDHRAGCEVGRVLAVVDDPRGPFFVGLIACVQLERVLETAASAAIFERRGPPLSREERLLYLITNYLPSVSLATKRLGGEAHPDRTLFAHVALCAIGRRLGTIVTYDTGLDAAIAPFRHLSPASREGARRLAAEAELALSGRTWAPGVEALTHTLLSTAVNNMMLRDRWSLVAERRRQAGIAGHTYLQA

| Compound | IC50 (HSV-1 protease) | EC90 (HSV-1) | Cell viability (% of control) (Vero cells) |
| --- | --- | --- | --- |
| Cc1c(NC(=O)OC(C)(C)C)ccc2nc(N[C@H](C(=O)NCc3cccnc3)C(C)C)oc(=O)c12 [Compound No.24, (5-Methyl-2-{2-methyl-1S-[(pyridin-3-ylmethyl)-carbamoyl]-propylamino}-4-oxo-4H-benzo[d][1,3]oxazin-6-yl)-carbamic acid tert-butyl ester] | > 20 µM | > 25 µM | 99.5% |
| Cc1c(NC(=O)OC(C)(C)C)ccc2nc(N[C@H](C(=O)NCCc3ccccn3)C(C)C)oc(=O)c12 [Compound No.26, {5-Methyl-2-[2-methyl-1S-(2-pyridin-2-ylethylcarbamoyl)-propylamino]-4-oxo-4H-benzo[d][1,3]oxazin-6-yl}-carbamic acid tert-butyl ester] | 3.2 µM | 13 µM | 107.0% |
| Cc1c(NC(=O)OC(C)(C)C)ccc2nc(N[C@@H](CC3CCCCC3)C(=O)NCc3ccncc3)oc(=O)c12 [Compound No.28, (2-{2-Cyclohexyl-1S-[(pyridin-4-ylmethyl)-carbamoyl]-ethylamino}-5-methyl-4-oxo-4H-benzo[d][1,3]oxazin-6-yl)-carbamic acid tert-butyl ester] | 4.4 µM | < 6.3 µM | 70.0% |
| Cc1c(NC(=O)OC(C)(C)C)ccc2nc(N[C@@H](Cc3ccccc3)C(=O)NCc3cccnc3)oc(=O)c12 [Compound No.30, (5-Methyl-4-oxo-2-{2-phenyl-1S-[(pyridin-3-ylmethyl)-carbamoyl]-ethylamino}-4H-benzo[d][1,3]oxazin-6-yl)-carbamic acid tert-butyl ester] | 0.7 µM | 23.8 µM | 98.6% |
| Cc1c(NC(=O)OC(C)(C)C)ccc2nc(N[C@H](C(=O)NCc3ccccn3)C(C)(C)C)oc(=O)c12 [Compound No.32, (2-{2,2-dimethyl-1S-[(pyridin-2-ylmethyl)-carbamoyl]-propylamino}-5-methyl-4-oxo-4H-benzo[d][1,3]oxazin-6-yl)-carbamic acid tert-butyl ester] | 19.6 µM | 21.5 µM | 111.0% |
| Cc1c(NC(=O)CCCNC(=O)c2ccc(C(F)(F)F)cc2)ccc2nc(N[C@@H](C)C(=O)N(C)CCc3ccccn3)oc(=O)c12 [Compound No.219, N-[3-(5-Methyl-2-{1S-[methyl-(2-pyridin-2-yl-ethyl)-carbamoyl]-ethylamino}-4-oxo-4H-benzo[d][1,3]oxazin-6-ylcarbamoyl)-propyl]-4-trifluoromethyl-benzamide] | 0.9 µM | > 12.5 µM |  |
| CCCCc1ccc(C(=O)NCCCC(=O)Nc2ccc3nc(N[C@@H](C)C(=O)N(C)CCc4ccccn4)oc(=O)c3c2C)cc1 [Compound No.220, 4-Butyl-N-[3-(5-methyl-2-{1S-[methyl-(2-pyridin-2-yl-ethyl)-carbamoyl]-ethylamino}-4-oxo-4H-benzo [d][1,3]oxazin-6-ylcarbamoyl)-propyl]-benzamide] | 0.5 µM | > 12.5 µM |  |
| Cc1c(NC(=O)CCNC(=O)OC(C)(C)C)ccc2nc(N(C)CC(=O)N(C)CCc3ccccn3)oc(=O)c12 [Compound No.226, {2-[5-methyl-2-(methyl-{[methyl-(2-pyridin-2-yl-ethyl)-carbamoyl]-methyl}-amino)-4-oxo-4H-benzo[d][1,3]oxazin-6-ylcarbamoyl]-ethyl}-carbamic Acid Tert-Butyl Ester] | 1 µM | > 20 µM |  |
| Cc1c(NC(=O)CCNC(=O)OC(C)(C)C)ccc2nc(NCC(=O)N(C)CCc3ccccn3)oc(=O)c12 [Compound No.228, {2-[5-Methyl-2-({[methyl-(2-pyridin-2-yl-ethyl)-carbamoyl]-methyl}-amino)-4-oxo-4H-benzo[d][1,3]oxazin-6-ylcarbamoyl]-ethyl}-carbamic acid tert-butyl ester] | 0.7 µM | > 20 µM |  |
| Cc1c(NC(=O)OC(C)(C)C)ccc2nc(NC(C)(C)C(=O)N(C)CCc3ccccc3)oc(=O)c12 [compound 229, {5-Methyl-2-[1-methyl-1-(methyl-phenethyl-carbamoyl)-ethylamino]-4-oxo-4H-benzo[d][1,3]oxazin-6-yl}-carbamic acid tert-butyl ester, reference compound] | 12.2 µM | 6.6 µM |  |

Second part, led by results:

| IC50 (HSV-1 protease) | EC90 (HSV-1) | Compound | Cell viability (% of control) (Vero cells) |
| --- | --- | --- | --- |
| > 20 µM | > 25 µM | Cc1c(NC(=O)OC(C)(C)C)ccc2nc(N[C@H](C(=O)NCc3ccncc3)C(C)C)oc(=O)c12 [Compound No.25, (5-Methyl-2-{2-methyl-1S-[(pyridin-4-ylmethyl)-carbamoyl]-propylamino}-4-oxo-4H-benzo[d][1,3]oxazin-6-yl)-carbamic acid tert-butyl ester] | 100.0% |
| 8.7 µM | > 25 µM | Cc1c(NC(=O)OC(C)(C)C)ccc2nc(N[C@@H](CC3CCCCC3)C(=O)NCc3cccnc3)oc(=O)c12 [Compound No.27, (2-{2-Cyclohexyl-1S-[(pyridin-3-ylmethyl)-carbamoyl]-ethylamino}-5-methyl-4-oxo-4H-benzo[d][1,3]oxazin-6-yl)-carbamic acid tert-butyl ester] | 103.0% |
| 19.5 µM | 24.3 µM | Cc1c(NC(=O)OC(C)(C)C)ccc2nc(N[C@@H](CC3CCCCC3)C(=O)NCCc3ccccn3)oc(=O)c12 [Compound No.29, {2-[2-Cyclohexyl-1S-(2-pyridin-2-ylethylcarbamoyl)-ethylamino]-5-methyl-4-oxo-4H-benzo[d][1,3]oxazin-6-yl}-carbamic acid tert-butyl ester] | 110.0% |
| > 20 µM | > 25 µM | Cc1c(NC(=O)OC(C)(C)C)ccc2nc(N[C@@H](Cc3ccccc3)C(=O)NCc3ccncc3)oc(=O)c12 [Compound No.31, (5-Methyl-4-oxo-2-{2-phenyl-1S-[(pyridin-4-ylmethyl)-carbamoyl]-ethylamino}-4H-benzo[d][1,3]oxazin-6-yl)-carbamic acid tert-butyl ester] | 108.0% |
| 0.4 µM | > 12.5 µM | Cc1c(NC(=O)CCCNC(=O)c2cccs2)ccc2nc(N[C@@H](C)C(=O)N(C)CCc3ccccn3)oc(=O)c12 [Compound No.218, Thiophene-2-carboxylic acid [3-(5-methyl-2-{1S-[methyl-(2-pyridin-2-yl-ethyl)-carbamoyl]-ethylamino}-4-oxo-4H-benzo[d][1,3]oxazin-6-ylcarbamoyl)-propyl]-amide] |  |
| 2.4 µM | > 20 µM | Cc1c(NC(=O)CCNC(=O)OC(C)(C)C)ccc2nc(N[C@H](C)C(=O)N(C)CCc3ccccn3)oc(=O)c12 [Compound No.227, [2-(5-Methyl-2-{1R-[methyl-(2-pyridin-2-yl-ethyl)-carbamoyl]-ethylamino}-4-oxo-4H-benzo[d][1,3]oxazin-6-ylcarbamoyl)-ethyl]-carbamic acid tert-butyl ester] |  |

Source: US20040116420A1 (priority 2001, published 2004)
